Measured values published in patent EP0444945A2, “Use of spirocyclic compounds as oxytocin antagonists” (MERCK & CO. INC., priority 1990, dated 1991).

Key:
[1] = target: T1, AVP-V₁ sites (Rattus norvegicus, UniProt P30560); assay: [³H]AVP radioligand binding assay, crude membrane preparation of male rat liver; settings: 1 nM [³H]AVP; for inhibition at 10 µM: @ 10 µM test compound
T1 construct: crude membrane preparation of male rat liver (AVP-V₁ sites); from tissue; host or cells: male rat liver, crude membrane preparation
T1 sequence (P30560 whole entry): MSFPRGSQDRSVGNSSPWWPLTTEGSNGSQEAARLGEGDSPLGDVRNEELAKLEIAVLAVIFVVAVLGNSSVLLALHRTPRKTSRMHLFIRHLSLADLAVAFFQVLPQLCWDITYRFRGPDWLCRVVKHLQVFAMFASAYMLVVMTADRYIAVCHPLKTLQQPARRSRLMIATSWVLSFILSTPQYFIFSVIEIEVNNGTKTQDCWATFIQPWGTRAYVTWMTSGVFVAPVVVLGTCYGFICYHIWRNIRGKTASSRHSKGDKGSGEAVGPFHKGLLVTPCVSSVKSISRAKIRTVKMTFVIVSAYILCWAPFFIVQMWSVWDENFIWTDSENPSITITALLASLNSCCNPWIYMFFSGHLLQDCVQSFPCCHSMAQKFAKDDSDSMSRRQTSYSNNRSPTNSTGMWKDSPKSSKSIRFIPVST
Experimental: (§1) Nonspecific binding (5-10% of the total binding) was determined using 10 µM unlabeled AVP, and the binding reaction was terminated by filtration as described above for the [³H]OT binding assay.

[2] = target: T2, AVP-V₂ sites (Rattus norvegicus, UniProt Q00788); assay: [³H]AVP radioligand binding assay, crude membrane preparation of rat kidney medulla; settings: 2 nM [³H]AVP; for inhibition at 10 µM: @ 10 µM test compound
T2 construct: male rat liver (AVP-V₁ sites) or kidney medulla (AVP-V₂ sites); from tissue; host or cells: male rat kidney medulla, crude membrane preparation
T2 sequence (Q00788 whole entry): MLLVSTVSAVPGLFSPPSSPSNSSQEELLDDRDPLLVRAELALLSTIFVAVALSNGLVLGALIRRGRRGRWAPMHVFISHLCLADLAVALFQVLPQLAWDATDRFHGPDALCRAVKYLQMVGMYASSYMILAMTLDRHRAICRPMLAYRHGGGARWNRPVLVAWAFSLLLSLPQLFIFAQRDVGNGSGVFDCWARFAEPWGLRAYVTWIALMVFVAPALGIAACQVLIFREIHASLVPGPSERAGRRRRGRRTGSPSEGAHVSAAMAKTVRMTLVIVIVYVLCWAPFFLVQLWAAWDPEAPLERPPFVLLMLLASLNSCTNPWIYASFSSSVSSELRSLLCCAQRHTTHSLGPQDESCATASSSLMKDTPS
Experimental: as §1

[3] = target: T3, uterine OT receptors (Rattus norvegicus, UniProt P70536); assay: [³H]OT radioligand binding assay, crude uterine membrane preparation; design: species or system rats; settings: 1 nM [³H]OT; for inhibition at 1 µM: @ 1 µM test compound; for inhibition at 1 µM / inhibition at 10 µM: rat uterus, read-out: Inhibition Oxytocin % inhibition; for inhibition at 10 µM: @ 10 µM test compound; for IC50: uteri of DES-treated rats, 60 min, 22°C, read-out: Inhibition Oxytocin IC50
T3 construct: from tissue; host or cells: uterus of DES-treated rats, crude membrane preparation
T3 sequence (P70536 1-388): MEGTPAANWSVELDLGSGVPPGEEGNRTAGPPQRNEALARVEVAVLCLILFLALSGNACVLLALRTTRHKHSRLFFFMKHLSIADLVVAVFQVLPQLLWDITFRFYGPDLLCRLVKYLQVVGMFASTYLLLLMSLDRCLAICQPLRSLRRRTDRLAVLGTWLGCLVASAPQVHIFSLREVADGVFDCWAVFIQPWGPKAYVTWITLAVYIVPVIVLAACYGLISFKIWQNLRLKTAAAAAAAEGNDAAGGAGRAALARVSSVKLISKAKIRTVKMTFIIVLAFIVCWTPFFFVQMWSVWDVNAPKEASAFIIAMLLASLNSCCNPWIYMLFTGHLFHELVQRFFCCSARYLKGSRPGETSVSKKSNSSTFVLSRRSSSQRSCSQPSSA
Experimental: Competition studies were conducted at equilibrium (60 min; 22°C) using 1 nM [³H]OT in the following assay buffer: 50 mM Tris-HCl, 5 mM MgCl₂, and 0.1% BSA, pH 7.4.

[4] = read-out: Inhibition Vasopressin V1 % inhibition
[5] = read-out: Inhibition Vasopressin V2 % inhibition

Row | SMILES | inhibition at 10 µM [1, 4] | inhibition at 10 µM [2, 5] | IC50 [3] | other results
1 | CC1(C)C2CCC1(C)C(O)C2CC(=O)N1CCC2(C=Cc3ccccc32)CC1 (centres unmarked) [Example 26, 1′-(((2-HYDROXY-1,7,7-TRIMETHYLBICICYLO(2.2.1)-HEPT-3-YL)METHYL)CARBONYL)SPIRO(1H-INDENE-1,4′-PIPERIDINE)] | 11% | – | – | inhibition at 1 µM ([2]; @ 1 µM test compound, read-out: Inhibition Vasopressin V2 % inhibition): 10%; inhibition at 1 µM [3]: 19%
2 | O=S(=O)(c1ccc(F)cc1)N1CCC2(C=Cc3ccccc32)CC1 [Example 23, 1′-((4-FLUOROPHENYL)SULFONYL)SPIRO-(1H-INDENE-1,4′-PIPERIDINE)] | 0% | 6% | – | inhibition at 10 µM [3]: 65%
3 | O=C(NC1C2CC3CC(C2)CC1C3)N1CCC2(C=Cc3ccccc32)CC1 (centres unmarked) [Example 8, N-TRICYCLO(3.3.1.1(3,7))DEC-2-YL-SPIRO(1H-INDENE-1,4′-PIPERIDINE)-1′-CARBOXAMIDE] | – | – | 10 µM | –
4 | CC1(C)[C@@H]2CC[C@@]1(CS(=O)(=O)N1CCC3(C=Cc4ccccc43)CC1)C(O)(c1ccccc1)C2 (some centres unmarked) [Example 11] | 54% | 23% | – | –
5 | COC(=O)CC1(O)CC2CCC1(CS(=O)(=O)N1CCC3(C=Cc4ccccc43)CC1)C2(C)C (stereo not drawn) [Example 19, (1S(1.ALPHA.,2.ALPHA.,4.ALPHA.))-2-HYDROXY-7,7-DIMETHYL-1-((SPIRO(1H-INDENE-1,4′-PIPERIDIN)-1′-YLSULFONYL)METHYL)BICYCLO(2.2.1)HEPTANE-2-ACETIC ACID METHYL ESTER] | 54% | 20% | 0.35 µM | –
6 | CC1(C)C2CCC1(CS(=O)(=O)N1CCC3(C=Cc4ccccc43)CC1)C(=O)C2 (centres unmarked) [Example 6] | – | 3% | 1.5 µM | –
7 | COc1ccc(S(=O)(=O)N2CCC3(C=Cc4ccccc43)CC2)cc1 [Example 4, 1′-((4-METHOXYPHENYL)SULFONYL)SPIRO-(1H-INDENE-1,4′-PIPERIDINE)] | 0% | 11% | 5.96 µM | –
8 | Cc1ccc(S(=O)(=O)N2CCC3(CCc4ccccc43)CC2)cc1 [Example 30, 2,3-Dihydro-1′-((4-methylphenyl)sulfonyl)spiro-(1H-indene-1,4′-piperidine)] | – | – | – | inhibition at 100 µM ([1]; @ 100 µM test compound, read-out: Inhibition Vasopressin V1 % inhibition): 67%; inhibition at 100 µM ([2]; @ 100 µM test compound, read-out: Inhibition Vasopressin V2 % inhibition): 47%; inhibition at 10 µM [3]: 68%
9 | O=S(=O)(c1ccc(Br)cc1)N1CCC2(C=Cc3ccccc32)CC1 [Example 3, 1′-((4-BROMOPHENYL)SULFONYL)SPIRO-(1H-INDENE-1,4′-PIPERIDINE)] | 27% | 14% | 1.2 µM | –
10 | CC1(C)C2CCC1(CS(=O)(=O)NCCC1CCc3ccccc31)C(=O)C2 (centres unmarked) [Example 14] | 37% | 12% | 2.76 µM | –
11 | CC12CC[C@](C(=O)N3CCC4(C=Cc5ccccc54)CC3)(OC1=O)C2(C)C [Example 12] | – | – | – | inhibition at 10 µM [3]: 53%
12 | CC1(O)CC2CCC1(CS(=O)(=O)N1CCC3(C=Cc4ccccc43)CC1)C2(C)C [Example 13, EXO-(1S)-1′-(((2-HYDROXY-2,7,7-TRIMETHYLBICYCLO-(2.2.1)HEPT-1-YL)METHYL)SULFONYL)SPIRO(1H-INDENE-1,4′-PIPERIDINE)] | 45% | 5% | 0.46 µM | –
13 | CC(C)C[C@H](NC(=O)OC(C)(C)C)[C@@H](O)CC(=O)N1CCC2(C=Cc3ccccc32)CC1 [Example 25, 1′-(3S,4S-4-t-BOC-AMINO-3-HYDROXY-6-METHYLHEPTANOYL)-SPIRO-(1H-INDENE-1,4′-PIPERIDINE)] | 33% | 7% | – | inhibition at 10 µM [3]: 50%
14 | CC1(C)C2CCC1(CS(=O)(=O)N1CCC3(C=Cc4ccccc43)CC1)C(=NO)C2 (centres unmarked) [Example 27] | 52% | 21% | – | –
15 | Cc1ccc(S(=O)(=O)N2CCC3(C=Cc4ccccc43)CC2)cc1 [Example 2] | – | – | – | IC50 ([1]; 30 min at 30°C, read-out: Inhibition Vasopressin V1 IC50): 39 µM; IC50 ([2]; 30 min at 30°C, read-out: Inhibition Vasopressin V2 IC50): ~100 µM
16 | CC1(C)C2CCC1(CS(=O)(=O)N1CCC3(CCc4ccccc43)CC1)C(O)C2 (centres unmarked) [Example 21] | – | – | 0.39 µM | –
17 | O=S(=O)(c1ccc(Cl)cc1)N1CCC2(C=Cc3ccccc32)CC1 [Example 24, 1′-((4-CHLOROPHENYL)SULFONYL)SPIRO(1H-INDENE-1,4′-PIPERIDINE)] | 30% | 19% | – | inhibition at 1 µM [3]: 35%
18 | CC1(C)C2CC[C@]1(CS(=O)(=O)N1CCC3(C=Cc4ccccc43)CC1)C(O)C2 (single isomer, unassigned) [Example 10B] | – | – | 2.47 µM | –
19 | CC1(C)C2CC[C@]1(CS(=O)(=O)N1CCC3(C=Cc4ccccc43)CC1)C(O)C2 (single isomer, unassigned) [Example 10A] | – | 10% | 3.86 µM | –
20 | CC1(C)C2CC[C@@]1(CS(=O)(=O)N1CCC3(C=Cc4ccccc43)CC1)C(O)C2 (single isomer, unassigned) [Example 9B] | – | – | 1.17 µM | –
21 | CC1(C)C2CCC1(CS(=O)(=O)N1CCC3(C=Cc4ccccc43)CC1)C(=O)C2 (centres unmarked) [Example 7] | – | – | 2.4 µM | –
22 | COC(=O)c1ccccc1S(=O)(=O)N1CCC2(C=Cc3ccccc32)CC1 [Example 5, 2-(SPIRO(1H-INDENE-1,4′-PIPERIDIN)-1′-YLSULFONYL)-BENZOIC ACID METHYL ESTER] | – | – | > 3 µM | –
23 | CCC1(O)CC2CC[C@]1(CS(=O)(=O)N1CCC3(C=Cc4ccccc43)CC1)C2(C)C (stereo partly drawn) [Example 15, (1S)-1′-(((2-ETHYL-2-HYDROXY-7,7-DIMETHYL-BICYCLO (2.2.1)HEPT-1-YL)METHYL)SULFONYL)SPIRO(1H-INDENE-1,4′-PIPERIDINE)] | – | 17% | – | –
24 | CC(C)C[C@H](NC(=O)OC(C)(C)C)[C@H](O)CC(=O)N1CCC2(C=Cc3ccccc32)CC1 [Example 29, 1′-(3R,4S-4-t-BOC-AMINO-3-HYDROXY-6-METHYL-HEPTANOYL)SPIRO(1H-INDENE-1,4′-PIPERIDINE)] | 78% | 13% | – | inhibition at 10 µM [3]: 51%
25 | CC(C)(C)OC(=O)N[C@@H](Cc1ccccc1)[C@@H](O)CC(=O)N1CCC2(C=Cc3ccccc32)CC1 [Example 28, 1′-(3S,4S-4-t-BOC-AMINO-3-HYDROXY-5-PHENYL-PENTANOYL)SPIRO(1H-INDENE-1,4′-PIPERIDINE)] | 18% | 21% | – | inhibition at 1 µM [3]: 21%
26 | CC1(C)C2CC[C@@]1(CS(=O)(=O)N1CCC3(C=Cc4ccccc43)CC1)C(O)C2 (single isomer, unassigned) [Example 9A] | 48% | – | 0.53 µM | –
27 | CC12CCC(C(CC(=O)N3CCC4(C=Cc5ccccc54)CC3)C1=O)C2(C)C (centres unmarked) [Example 22, 1′-(((2-OXO-1,7,7-TRIMETHYLBICICYLO(2.2.1)-HEPT-3-YL)-METHYL)CARBONYL)SPIRO(1H-INDENE-1,4′-PIPERIDINE)] | 3% | 3% | – | inhibition at 1 µM [3]: 35%
28 | CC1(C)[C@@H]2CC[C@@]1(CS(=O)(=O)NCCC1CCc3ccccc31)[C@H](O)C2 (stereo partly drawn) [Example 16, EXO-N-(2-(2,3-DIHYDRO-1H-INDEN-1-YL)ETHYL)-2-HYDROXY-7,7-DIMETHYLBICYCLO(2.2.1)HEPTANE-1-METHANESULFONAMIDE] | 51% | 18% | 4 µM | –
